# Laboratory results reported in patent US12679839B2, “Cyclin-dependent kinase 7 (CDK7) non-covalent inhibitors” (JANSSEN PHARMACEUTICA NV, priority 2020, dated 2026).
# Tests used:
# [1] = target: T1, CDK7/Cyclin H/MAT-1 complex (Homo sapiens, UniProt P50613); assay: Absorbance kinetic assay (20 nM CDK7/Cyclin H/MAT-1 complex); format: biochemical; settings: for IC50: read-out: CDK7 (20 nM) pIC50 (converted)
# T1 construct: Human CDK7 (amino acids 1-346); His6 (N); TEV protease cleavage site (N); made in house; host or cells: baculovirus-SF9 insect cells
# Method in brief: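 Trimeric complex (His6-TEV CDK7 1-346, MAT1 1-309, cyclin H 1-323) from Sf9 cells, at 20 nM, phosphorylating RNA Pol II-derived CDK7/9-tide; ADP coupled via PK/LDH to NADH depletion read at 340 nm every 2 min for 8 h. Steady-state slopes gave % inhibition; IC50 from 11-point Hill fit.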
# [2] = target: T1, CDK7/Cyclin H/MAT-1 complex; assay: Flint assay, end-point fluorescence (5 nM CDK7/Cyclin H/MAT-1 complex); format: biochemical; settings: for IC50: read-out: CDK7 (5 nM) pIC50 (converted)
# Protocol: Human CDK7 (amino acids 1-346) containing an N-terminal His6-tag followed by a tobacco etch virus (TEV) protease cleavage site, human MAT1 (amino acids 1-309) and human cyclin H (amino acids 1-323) were co-expressed in the baculovirus-SF9 insect cell expression system to generate a trimeric complex. Cell pellets were collected 72 h post-infection and were resuspended by Dounce homogenization in 20 mM Hepes-NaOH (pH 8.0), 300 mM NaCl, 10% glycerol, 2 mM dithiothreitol DTT), and 20 mM Imidazole supplemented with cOmplete™ Protease Inhibitor Cocktail (Roche) and 25 U/mL Benzonase® Nuclease HC according to the manufacturer's instructions. Cells were lysed by passing through a Microfluidics M110Y Microfluidizer 3 times at 600 kPa followed by centrifugation at 38,000×g at 4° C. for 1 hour. The supernatant was loaded onto a pre-equilibrated HisTrap HP column and eluted in 20 mM Hepes-NaOH (pH 8.0), 50 mM NaCl, 10% glycerol, 2 mM DTT, and 400 mM Imidazole. The eluate was further purified by gel filtration on a Superdex S200 16/60 column and eluted with 20 mM Hepes-NaOH (pH 7.5), 50 mM NaCl, 10% Glycerol, 2 mM DTT. Fractions containing a trimeric complex of CDK7, cyclin H, and MAT1 in a 1:1:1 ratio were pooled and concentrated to 3 mg/mL in a 10 kDa MWCO concentrator, and diluted to a final concentration of 1.6 mg/mL in 11.1 mM Hepes-NaOH (pH 8.0), 27.8 mM NaCl, 1.1 mM DTT and 50% glycerol.
# Compounds with potencies approaching the limit of detection of the assay (IC50≤10 nM) were further assessed in a more sensitive fluorescence end-point assay.
# [formula] where νo is the rate in the absence of inhibitor, νmin is the rate at highest inhibitor concentration, and h is the Hill coefficient. Flint Assay (5 nM CDK7/Cyclin H/MAT-1 Complex)
# The continuous absorbance assay was converted to an end-point fluorescence assay following the NADH fluorescence signal decrease at the excitation and emission wavelengths of 340 nm and 440 nm, respectively.
# Under the same concentrations of substrates and coupling reagents used in the absorbance assay, the fluorescence assay was performed at a reduced concentration of the CDK7/Cyclin H/MAT-1 complex of 5 nM (final concentration) with a reaction time of 24 hours. The percent of inhibition was calculated by the following equation. Percent of inhibition=(Sample−NC)/(PC−NC)*100 where NC is the mean if negative control (reaction without inhibitor), and PC is the mean of positive control (reaction with complete inhibition).
# Dosing curves were fitted using the following equation to obtain IC50: Y=Bottom+(Top−Bottom)/(1+10^((log IC50−X)*Hill slope)) where X=log10 of the compound concentration; top and bottom can be defined by PC and NC respectively. Imaging-Based Cellular RNA PolII Ser5 Phosphorylation Assay
# T1 sequence (P50613 whole entry, the tested form may be a part): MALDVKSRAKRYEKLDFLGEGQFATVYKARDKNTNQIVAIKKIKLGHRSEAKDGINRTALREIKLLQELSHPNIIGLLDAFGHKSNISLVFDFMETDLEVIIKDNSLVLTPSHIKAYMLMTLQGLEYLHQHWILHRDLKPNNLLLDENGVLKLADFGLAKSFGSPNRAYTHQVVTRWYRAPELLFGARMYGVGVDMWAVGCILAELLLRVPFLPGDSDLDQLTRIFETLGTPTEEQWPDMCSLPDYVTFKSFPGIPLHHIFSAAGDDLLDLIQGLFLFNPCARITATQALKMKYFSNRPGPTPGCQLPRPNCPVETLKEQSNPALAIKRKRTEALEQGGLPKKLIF
# T1 sequence (P51946 whole entry partner, the tested form may be a part): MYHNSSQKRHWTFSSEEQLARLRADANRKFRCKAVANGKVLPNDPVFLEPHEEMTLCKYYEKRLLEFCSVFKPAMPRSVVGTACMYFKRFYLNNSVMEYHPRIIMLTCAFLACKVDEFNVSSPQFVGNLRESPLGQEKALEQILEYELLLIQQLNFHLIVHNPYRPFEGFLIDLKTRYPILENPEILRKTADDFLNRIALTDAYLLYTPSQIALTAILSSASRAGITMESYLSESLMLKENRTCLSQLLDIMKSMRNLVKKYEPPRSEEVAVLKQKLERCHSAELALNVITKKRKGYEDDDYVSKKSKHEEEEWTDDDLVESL
# T1 sequence (P51948 whole entry partner, the tested form may be a part): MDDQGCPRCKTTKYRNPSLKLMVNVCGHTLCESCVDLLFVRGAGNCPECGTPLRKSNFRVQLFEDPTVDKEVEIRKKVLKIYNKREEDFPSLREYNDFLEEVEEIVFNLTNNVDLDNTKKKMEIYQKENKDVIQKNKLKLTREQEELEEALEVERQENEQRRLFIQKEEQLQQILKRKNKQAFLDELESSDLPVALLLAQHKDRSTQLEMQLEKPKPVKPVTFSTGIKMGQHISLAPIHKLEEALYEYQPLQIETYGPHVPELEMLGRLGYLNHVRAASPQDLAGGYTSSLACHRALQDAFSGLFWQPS
SMILES,CDK7 (20 nM) pIC50 [1],CDK7 (5 nM) pIC50 [2],IC50 [1],IC50 [2]
C[C@@H]1Cc2cnc(N[C@H]3CCC[C@H](O)C3)nc2CN1C(=O)[C@H]1CCN(C)C[C@@H]1c1ccccc1 [Compound 59],>8.01,8.28,,
C[C@@H]1Cc2cnc(NCc3ccsc3)nc2CN1C(=O)[C@H]1CCN(C)C[C@@H]1c1ccccc1 [Compound 48],7.59,7.92,,
C[C@@H]1Cc2cnc(NC[C@@H]3CCOC3)nc2CN1C(=O)[C@H]1CCN(C)C[C@@H]1c1ccccc1 [Compound 62],>8.01,8.33,,
CO[C@]1(C)CC[C@@H](Nc2ncc3c(n2)CN(C(=O)[C@H]2CCN(C)C[C@@H]2c2ccccc2)[C@H](C)C3)CC1 [Compound 10],>8.01,8.11,,
C[C@@H]1Cc2cnc(N[C@H](CO)c3ccccc3)nc2CN1C(=O)[C@H]1CCN(C)C[C@@H]1c1ccccc1 [Compound 72],8.01,8.22,,
C[C@@H]1Cc2cnc(NC[C@@H]3CCCO3)nc2CN1C(=O)[C@H]1CCN(C)C[C@@H]1c1ccccc1 [Compound 67],,,< 9.77 nM,16.6 nM
C[C@@H]1Cc2cnc(N[C@H]3CCC(=O)N(C)C3)nc2CN1C(=O)[C@H]1CCN(C)C[C@@H]1c1ccccc1 (relative stereo) [Compound 7],,,< 9.77 nM,4.47 nM
C[C@@H]1Cc2cnc(Nc3ccnn3C)nc2CN1C(=O)[C@H]1CCN(C)C[C@@H]1c1ccccc1 [Compound 79],7.37,7.78,,
C[C@@H]1Cc2cnc(NCc3ccn(C)n3)nc2CN1C(=O)[C@H]1CCN(C)C[C@@H]1c1ccccc1 [Compound 1],8.01,8.61,,
C[C@@H]1Cc2cnc(N[C@H](C)c3ccccc3)nc2CN1C(=O)[C@H]1CCN(C)C[C@@H]1c1ccccc1 [Compound 22],8.01,8.19,,
CO[C@H]1CC[C@H](Nc2ncc3c(n2)CN(C(=O)[C@H]2CCN(C)C[C@@H]2c2ccc(C)nc2)[C@H](C)C3)CC1 (relative stereo) [Compound 110],,,< 9.77 nM,12.9 nM
C[C@@H]1Cc2cnc(NCc3ccn(C)c3)nc2CN1C(=O)[C@H]1CCN(C)C[C@@H]1c1ccccc1 [Compound 60],,,< 9.77 nM,3.55 nM
C[C@@H]1Cc2cnc(NC[C@H]3CCOC3)nc2CN1C(=O)[C@H]1CCN(C)C[C@@H]1c1ccccc1 [Compound 53],7.39,7.99,,
CC(C)n1cc(Nc2ncc3c(n2)CN(C(=O)[C@H]2CCN(C)C[C@@H]2c2ccccc2)[C@H](C)C3)cn1 [Compound 89],6.1,<6.7,,
C[C@@H]1Cc2cnc(NC3CCC(OC(F)F)CC3)nc2CN1C(=O)[C@H]1CCN(C)C[C@@H]1c1ccccc1 (stereo partly drawn) [Compound 69],>8.01,8.57,,
C[C@@H]1Cc2cnc(NCc3ccccc3)nc2CN1C(=O)[C@H]1CCN(C)C[C@@H]1c1ccccc1 [Compound 43],8.01,8.11,,
C[C@@H]1Cc2cnc(NC3CCOCC3)nc2CN1C(=O)[C@H]1CCN(C)C[C@@H]1c1ccc(Cl)c(F)c1 [Compound 122b],7.15,8.5,,
C[C@H](Nc1ncc2c(n1)CN(C(=O)[C@H]1CCN(C)C[C@@H]1c1ccccc1)[C@H](C)C2)c1ccccn1 [Compound 20],8.01,8.19,,
CCn1ccc(CNc2ncc3c(n2)CN(C(=O)[C@H]2CCN(C)C[C@@H]2c2ccccc2)[C@H](C)C3)n1 [Compound 58],>8.01,8.63,,
Cc1ccc(CNc2ncc3c(n2)CN(C(=O)[C@H]2CCN(C)C[C@@H]2c2ccccc2)[C@H](C)C3)o1 [Compound 50],7.6,8.05,,
CC(C)n1ccc(CNc2ncc3c(n2)CN(C(=O)[C@H]2CCN(C)C[C@@H]2c2ccccc2)[C@H](C)C3)n1 [Compound 66],>8.01,8.56,,
C[C@@H]1Cc2cnc(NCc3cnn(C)c3)nc2CN1C(=O)[C@H]1CCN(C)C[C@@H]1c1ccccc1 [Compound 57],6.66,7.53,,
C[C@@H]1Cc2cnc(Nc3cnn4c3CCCC4)nc2CN1C(=O)[C@H]1CCN(C)C[C@@H]1c1ccccc1 [Compound 77],7.53,7.88,,
Cc1cccc([C@H]2CN(C)CC[C@@H]2C(=O)N2Cc3nc(NC4CCOCC4)ncc3C[C@H]2C)c1 [Compound 93],>8.01,8.52,,
C[C@@H]1Cc2cnc(NCc3cc[nH]n3)nc2CN1C(=O)[C@H]1CCN(C)C[C@@H]1c1ccccc1 [Compound 51],,,51.3 nM,8.32 nM
Cc1cc(Nc2ncc3c(n2)CN(C(=O)[C@H]2CCN(C)C[C@@H]2c2ccccc2)[C@H](C)C3)ccn1 [Compound 78],7.93,8.37,,
C[C@@H]1Cc2cnc(NCc3cc(C(F)F)n(C)n3)nc2CN1C(=O)[C@H]1CCN(C)C[C@@H]1c1ccccc1 [Compound 56],6.85,7.44,,

# Continued, values first:
CDK7 (20 nM) pIC50 [1],CDK7 (5 nM) pIC50 [2],IC50 [1],IC50 [2],SMILES
>8.01,8.27,,,CN1CC[C@H](C(=O)N2Cc3nc(NC4CCOCC4)ncc3[C@@H]3C[C@@H]32)[C@@H](c2ccccc2)C1 [Compound 199]
6.25,6.95,,,C[C@@H]1Cc2cnc(NC3CCOCC3)nc2CN1C(=O)[C@@H]1CC[C@@H](N(C)C)CN1c1ccccc1 (mixture of isomers) [Compound 167]
6.96,8.58,,,"CC(C)N1CC[C@H](C(=O)N2Cc3nc(NC4CCOCC4)ncc3C[C@H]2C)[C@@H](c2cccc(Cl)c2)C1 (single isomer, unassigned) [Compound 160]"
,,9.77 nM,5.75 nM,"C[C@H]1Cc2cnc(NC3CCOCC3)cc2CN1C(=O)[C@H]1CCN(C)C[C@@H]1c1ccccc1 (single isomer, unassigned) [Compound 171a]"
6.75,7.05,,,CN1CC[C@H](C(=O)N2Cc3nc(NC4CCOCC4)ncc3C(C)(C)C2)[C@@H](c2ccccc2)C1 [Compound 193]
6.8,6.9,,,C[C@@H]1Cc2cnc(NCc3ccn(C)n3)nc2CN1C(=O)N1CCN(C)C[C@@H]1c1ccccc1 [Compound 213]
,,234 nM,75.9 nM,C[C@@H]1Cc2cnc(NCc3ccn(C)n3)nc2CN1C(=O)[C@@H]1CCN(C)C[C@H]1c1cccc(OC(F)(F)F)c1 (relative stereo) [Compound 127]
7.48,8.16,,,CO[C@H]1CC[C@H](Nc2ncc3c(n2)CN(C(=O)[C@H]2CCN(C)C[C@@H]2c2ccccc2)[C@H]2C[C@@H]32)CC1 [Compound 201]
7.52,8.13,,,"C[C@H]1Cc2cnc(NC3(c4ccccc4)COC3)cc2CN1C(=O)[C@H]1CCN(C)C[C@@H]1c1ccccc1 (single isomer, unassigned) [Compound 175]"
7.77,8.48,,,C[C@@H]1Cc2cnc(NC3CCN(S(C)(=O)=O)CC3)nc2CN1C(=O)N1CCN(C)C[C@@H]1c1ccccc1 [Compound 209]
,,18.6 nM,6.76 nM,C[C@@H]1Cc2cnc(NCc3ccn(C)n3)nc2CN1C(=O)[C@H]1CCN(C)C[C@@H]1c1cccc(OC(F)(F)F)c1 (relative stereo) [Compound 128]
7.55,7.8,,,C[C@@H]1Cc2cnc(NC3CCS(=O)(=O)CC3)nc2CN1C(=O)N1CCN(C)C[C@@H]1c1ccccc1 [Compound 214]
